Source: ChEMBL document CHEMBL1221262, “Synthesis and antituberculosis activity of new fatty acid amides” (2010)
Values after ≈ are worked out from the molar mass of the structure shown.

System: Mycobacterium tuberculosis
Experiment: Antitubercular activity against Mycobacterium tuberculosis H37Rv after 7 days by resazurin microtiter assay
Type: functional
Settings: 168 h

Row | SMILES | MIC
1 | CCCCCCCC/C=C\CCCCCCCC(=O)N1CCCCC1 | 50 µg/mL (≈ 143 µM)
2 | CCCCCCCC/C=C\CCCCCCCC(=O)N1CCOCC1 | 25 µg/mL (≈ 71.1 µM)
3 | CCCCCC[C@@H](O)C/C=C\CCCCCCCC(=O)NCc1ccccc1 | 25 µg/mL (≈ 64.5 µM)
4 | CCCCCC[C@@H](O)C/C=C\CCCCCCCC(=O)N[C@H](C)c1ccccc1 | 100 µg/mL (≈ 249 µM)
5 | CCCCCC[C@@H](O)C/C=C\CCCCCCCC(=O)N[C@@H](C)c1ccccc1 | 100 µg/mL (≈ 249 µM)
6 | CCCCCC[C@@H](O)C/C=C\CCCCCCCC(=O)N1CCCC1 | 12.5 µg/mL (≈ 35.6 µM)
7 | CCCCCC[C@@H](O)C/C=C\CCCCCCCC(=O)N1CCOCC1 | 50 µg/mL (≈ 136 µM)
8 | CCCCC/C=C\C/C=C\CCCCCCCC(=O)N[C@H](C)c1ccccc1 | 100 µg/mL (≈ 261 µM)
9 | CCCCC/C=C\C/C=C\CCCCCCCC(=O)N[C@@H](C)c1ccccc1 | 50 µg/mL (≈ 130 µM)
10 | CCCCC/C=C\C/C=C\CCCCCCCC(=O)N1CCCC1 | 12.5 µg/mL (≈ 37.5 µM)
11 | CCCCCCCCCCCCCCCC(=O)N[C@H](C)c1ccccc1 | > 100 µg/mL
12 | CCCCCCCCCCCCCCCC(=O)N[C@@H](C)c1ccccc1 | > 100 µg/mL
13 | CCCCCCCCCCCCCCCC(=O)N1CCCC1 | 25 µg/mL (≈ 80.8 µM)
14 | CCCCCCCCCCCCCCCC(=O)N1CCCCC1 | 25 µg/mL (≈ 77.3 µM)
15 | CCCCCCCCCCCCCCCCCC(=O)N[C@H](C)c1ccccc1 | > 100 µg/mL
16 | CCCCCCCCCCCCCCCCCC(=O)N[C@@H](C)c1ccccc1 | > 100 µg/mL
17 | CCCCCCCC/C=C\CCCCCCCC(=O)N1CCCC1 | 25 µg/mL (≈ 74.5 µM)
18 | CCCCCCCC/C=C\CCCCCCCC(=O)NCCO [OLEOYLETHANOLAMIDE] | 25 µg/mL (≈ 76.8 µM)
19 | CCCCCCCCCCCCCCCC(=O)NCCO [PALMIDROL] | > 100 µg/mL
